{"source": "patent US9855285B2", "about": "“Method of inhibiting the expression of IL-22 in activated T-cells” (LEO PHARMA A/S, priority 2012, dated 2018)", "key": {"[1]": {"test_system": "human Th1/Th17 cells", "test": "In vitro assay using activated human T-cells differentiated into Th1/Th17 cells; cytokines released in the supernatant", "type": "cell-based", "description": "CD4+ T cells were first negatively isolated from human peripheral blood of healthy donors using RosetteSep® separation system from STEMCELL.\nSubsequently, CD4+ T cells were activated by crosslinking the cell surface proteins CD3 and CD28 with specific antibodies.\nTo induce Th1/Th17 differentiation, activated CD4+ T cells were then cultured in flasks at density of 2-5×10^6 cells per ml of culture in X-VIVO 15 serum-free medium in presence of growth and differentiation factors cocktail, containing the following: • rhIL-2 at 10 ng/ml • rhTGF-β at 10 ng/ml • rhIL-1β at 10 ng/ml • rhIL-6 at 10 ng/ml • rhIL-23 at 20 ng/ml • Antibody anti-IL-4 at 1 μg/ml • Antibody anti-IL-13 at 1 μg/ml\nCulture media had been refreshed every second day and T cells were cultured up to 5-7 days to allow a complete differentiation into Th1/Th17 cells.\nOnce the T cells are differentiated into Th1/Th17 cells, cells are rinsed from the differentiation media and placed in assay media (X-VIVO 15 media containing 10 ng/ml rhIL-2 only) at the final concentration of 1-1.5×10^6 cells/ml in wells with 0.250 ml cell suspension per well (0.25-0.375×10^6 cells/well/sample) with and without test compound treatment for 24 hours. At the termination time point, the effect of anti-inflammatory drugs is assessed by measuring the level of phenotype related cytokines released in the cell culture supernatants. Duplicates and cells from different donors are used for each treatment.\nAfter differentiation for 5-6 days, all the cells were carefully washed and placed in growth media containing IL-2 (X-VIVO+10 ng/ml IL-2) at a final concentration of 1-1.5×10^6 cells/ml. […] Assays were performed in duplicates and included undifferentiated human T cells (negative control) and treated or untreated differentiated human Th1/Th17 cells. All cells were cultured under similar conditions in assay media containing 0.1% DMSO with or without test compounds.\nTh1/Th17 cells were treated for 24 hours with or without test compounds.\nSupernatants were collected from all samples and assessed for cytokine expression (IL-6, IL-8, IL-17, IL-22 and TNF-α). All cytokines were measured (as pg/ml) using MSD kits except IL-22 which was measured by ELISA.\nData analysis and graphs were made in Excel or GraphPad Prism. Statistical analysis was made using 1 way ANOVA corrected by Dunnett's Multiple Comparison Test."}, "[2]": {"test_system": "keratinocyte proliferation", "conditions": "cited from earlier work"}, "[3]": {"conditions": "PDE4 inhibitor 1 μM alone or in combination with calcipotriol 100 nM"}, "[4]": {"conditions": "test compound alone, 24 hours, ELISA"}, "[5]": {"conditions": "vitamin D analogue 100 nM in combination with Compound A 1 μM"}}, "note": "Entries after “also recorded” stand apart in the source; their conditions may differ."}
{"smiles": "N#Cc1ccc(Oc2ccc3c(c2)COB3O)cc1", "note": "[AN2728, 4-(1-hydroxy-1,3-dihydro-2,1-benzoxaborol-5-yloxy)benzonitrile]", "values": [{"measurement": "expression and secretion of IL-22", "setting": "[1]; [3]", "result": "comparable efficacy to Compound A"}]}
{"smiles": "CCCNC(=O)COc1c(C(=O)Cc2ccnc(Cl)c2Cl)ccc(OC)c1OC", "note": "[Compound A, 2-{6-[2-(2,3-dichloropyridin-4-yl)acetyl]-2,3-dimethoxyphenoxy}-N-propylacetamide]", "values": [{"measurement": "expression of IL-22", "setting": "[1]; PDE4 inhibitor 1 μM alone, compared to vehicle treated control", "result": "increases"}, {"measurement": "expression of IL-6", "setting": "[1]; test compound alone, 24 hours", "result": "weakly; also recorded: significantly inhibits"}, {"measurement": "expression of IL-8", "setting": "[1]; test compound alone, 24 hours", "result": "did not have any effect"}, {"measurement": "expression of IL-17", "setting": "[1]; test compound alone, 24 hours", "result": "to some degree"}, {"measurement": "expression of TNFα", "setting": "[1]; test compound alone, 24 hours", "result": "strongly decreased; also recorded: significantly inhibits"}, {"measurement": "expression of IL-22", "setting": "[1]; [4]", "result": "dose-dependent upregulation; also recorded: increased; also recorded: significantly increases"}]}
{"smiles": "COc1cccc(Nc2c(C(N)=O)cnc3c(C)cc(S(=O)(=O)c4cccc(C(=O)N(C)C)c4)cc23)c1.Cl", "note": "[GSK256066, 6-[3-(N,N-dimethylcarbamoyl)phenylsulfonyl]-4-(3-methoxyphenylamino)-8-methylquinoline-3-carboxamide hydrochloride]", "values": [{"measurement": "expression and secretion of IL-22", "setting": "[1]; [3]", "result": "comparable efficacy to Compound A"}]}
{"smiles": "O=C(Nc1c(Cl)cncc1Cl)c1ccc(OC(F)F)c(OCC2CC2)c1", "note": "[Roflumilast, 3-(cyclopropylmethoxy)-N-(3,5-dichloropyridin-4-yl)4-(difluoromethoxy)benzamide]", "values": [{"measurement": "expression and secretion of IL-22", "setting": "[1]; [3]", "result": "comparable efficacy to Compound A"}]}
{"smiles": "CCOc1ccc(-c2nc(-c3cccc(C(=O)O)n3)cs2)cc1OCC", "note": "[Tetomilast, 6-[2-(3,4-diethoxyphenyl)thiazol-4-yl]pyridine-2-caboxylic acid]", "values": [{"measurement": "expression and secretion of IL-22", "setting": "[1]; [3]", "result": "comparable efficacy to Compound A"}]}
{"smiles": "C=C1/C(=C\\C=C2/CCC[C@]3(C)[C@@H]([C@H](C)/C=C/[C@@H](O)C4CC4)CC[C@@H]23)C[C@@H](O)C[C@@H]1O", "note": "[calcipotriol, Calcipotriol]", "values": [{"measurement": "concentration required to affect keratinocyte proliferation", "setting": "[2]", "result": 28, "unit": "nM"}, {"measurement": "upregulation of IL-22 expression", "setting": "[1]; calcipotriol 10 pM together with Compound A 1 μM", "result": "lost"}, {"measurement": "upregulation of IL-22 expression", "setting": "[1]; calcipotriol 100 pM together with Compound A 1 μM", "result": "inhibited the upregulation"}, {"measurement": "upregulation of IL-22 expression", "setting": "[1]; calcipotriol 500 pM together with Compound A 1 μM", "result": "inhibited the upregulation"}, {"measurement": "upregulation of IL-22 expression", "setting": "[1]; calcipotriol 1 nM together with Compound A 1 μM", "result": "inhibited the upregulation"}, {"measurement": "upregulation of IL-22 expression", "setting": "[1]; calcipotriol 100 nM together with Compound A 1 μM", "result": "inhibited the upregulation"}, {"measurement": "expression of IL-6", "setting": "[1]; test compound alone, 24 hours", "result": "did not have any effect"}, {"measurement": "expression of IL-8", "setting": "[1]; test compound alone, 24 hours", "result": "strongly inhibited"}, {"measurement": "expression of IL-17", "setting": "[1]; test compound alone, 24 hours", "result": "to some extent"}, {"measurement": "expression of TNFα", "setting": "[1]; test compound alone, 24 hours", "result": "did not have any effect"}, {"measurement": "expression of IL-22", "setting": "[1]; [4]", "result": "strongly inhibiting; also recorded: downregulate; also recorded: strongly inhibited"}, {"measurement": "expression of IL-22", "setting": "[1]; test compound alone, 24 hours, ELISA, listed as Calcipotriol", "result": "significantly inhibits"}, {"measurement": "expression of IL-8", "setting": "[1]; test compound alone, 24 hours, listed as Calcipotriol", "result": "inhibits"}, {"measurement": "expression and secretion of IL-22", "setting": "[1]; vitamin D analogue 100 nM alone, compared to vehicle treated control", "result": "significantly inhibits"}, {"measurement": "expression and secretion of IL-22", "setting": "[1]; [5]", "result": "comparable efficacy as Calcipotriol"}]}
{"smiles": "C=C1/C(=C\\C=C2/CCC[C@]3(C)[C@@H]([C@H](C)CCCC(C)(C)O)CC[C@@H]23)C[C@@H](O)C[C@@H]1O", "note": "[calcitriol]", "values": [{"measurement": "expression of IL-22", "setting": "[1]; [4]", "result": "downregulate"}, {"measurement": "expression and secretion of IL-22", "setting": "[1]; [5]", "result": "comparable efficacy as Calcipotriol"}]}
{"smiles": "C=C1/C(=C\\C=C2/CCC[C@]3(C)[C@@H]([C@H](C)OCCC(C)(C)O)CC[C@@H]23)C[C@@H](O)C[C@@H]1O", "note": "[maxacalcitol]", "values": [{"measurement": "expression of IL-22", "setting": "[1]; [4]", "result": "downregulate"}, {"measurement": "expression and secretion of IL-22", "setting": "[1]; [5]", "result": "comparable efficacy as Calcipotriol"}]}
{"smiles": "C=C1/C(=C\\C=C2/CCC[C@]3(C)[C@@H]([C@H](C)CC[C@@H](O)C(C)C)CC[C@@H]23)C[C@@H](O)C[C@@H]1O", "note": "[tacalcitol]", "values": [{"measurement": "expression of IL-22", "setting": "[1]; [4]", "result": "downregulate"}, {"measurement": "expression and secretion of IL-22", "setting": "[1]; [5]", "result": "comparable efficacy as Calcipotriol"}]}
